Results reported in patent publication US20240398812A1 (Caraway Therapeutics, Inc., priority 2021, published 2024).

Experiments:
Type in all cases: cell-based
TRPML3 = biological target: T1, TRPML3 (Homo sapiens, UniProt Q8TDD5); assay: Fluorescent TRPML3 assay (as for TRPML1)
T1 construct: expressed in transfected cells
T1 sequence (Q8TDD5 1-553): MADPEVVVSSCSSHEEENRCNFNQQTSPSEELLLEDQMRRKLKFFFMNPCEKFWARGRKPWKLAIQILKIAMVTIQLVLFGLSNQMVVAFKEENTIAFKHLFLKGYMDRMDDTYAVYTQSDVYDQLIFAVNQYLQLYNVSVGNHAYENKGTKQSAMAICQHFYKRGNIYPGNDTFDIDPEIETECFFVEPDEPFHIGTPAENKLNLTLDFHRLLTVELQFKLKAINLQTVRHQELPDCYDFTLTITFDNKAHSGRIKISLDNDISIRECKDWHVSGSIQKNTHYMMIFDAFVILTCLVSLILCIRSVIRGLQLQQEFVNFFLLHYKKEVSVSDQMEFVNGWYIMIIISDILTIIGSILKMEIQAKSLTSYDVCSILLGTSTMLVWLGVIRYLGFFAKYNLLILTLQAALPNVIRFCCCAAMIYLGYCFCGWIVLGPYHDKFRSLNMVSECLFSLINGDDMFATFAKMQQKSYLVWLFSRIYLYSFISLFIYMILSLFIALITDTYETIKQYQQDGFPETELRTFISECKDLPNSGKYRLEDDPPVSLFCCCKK
Procedure, shortened: (§1)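 EC50 came from non-linear regression of percent activity, set against on-plate positive and negative controls, using Fluo4 fluorescence (ex 480, em 540 nm). Compounds ran in triplicate from 6 nM to 20 µM final in half-log steps. Doxycycline-induced (0.5 ug/mL) HEK-293 Trex cells expressing surface-directed mutant channel were in 10 mM calcium Ringer's.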

TRPML2 = biological target: T2, TRPML2 (Homo sapiens, UniProt Q8IZK6); assay: Fluorescent TRPML2 assay (as for TRPML1)
T2 construct: expressed in transfected cells
T2 sequence (Q8IZK6 1-566): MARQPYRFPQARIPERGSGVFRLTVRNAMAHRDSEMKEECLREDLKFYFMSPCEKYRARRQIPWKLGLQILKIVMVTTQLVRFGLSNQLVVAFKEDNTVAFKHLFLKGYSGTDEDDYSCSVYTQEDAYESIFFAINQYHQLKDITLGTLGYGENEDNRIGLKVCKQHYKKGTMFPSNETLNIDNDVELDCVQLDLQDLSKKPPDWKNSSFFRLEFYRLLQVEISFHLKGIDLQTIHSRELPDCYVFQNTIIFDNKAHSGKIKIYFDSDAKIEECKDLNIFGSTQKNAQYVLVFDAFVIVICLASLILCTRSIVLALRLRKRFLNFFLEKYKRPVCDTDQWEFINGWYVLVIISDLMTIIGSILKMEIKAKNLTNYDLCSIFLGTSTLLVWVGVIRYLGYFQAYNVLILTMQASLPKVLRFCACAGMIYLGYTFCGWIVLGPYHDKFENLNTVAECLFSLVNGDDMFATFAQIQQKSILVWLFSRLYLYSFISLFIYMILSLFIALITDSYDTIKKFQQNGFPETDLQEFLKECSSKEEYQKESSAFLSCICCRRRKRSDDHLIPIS
Procedure, shortened: as §1

human TRPML1 = human TRPML1 (Homo sapiens, UniProt Q9GZU1); assay: Fluorescent TRPML1 assay (Fluo4-AM calcium fluorescence, HEK-293 Trex cells)
Procedure, shortened: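 Agonist EC50 from non-linear regression of percent activity versus on-plate controls, calcium signal read at 480/540 nm. Compounds spanned 6 nM–20 μM final in triplicate. Cells: doxycycline-induced HEK-293 Trex with cell-surface human TRPML1 mutant, Fluo4-AM loaded, in Ringer's containing 10 mM calcium.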

Sequence of human TRPML1 (Q9GZU1 whole entry L15A/L16A/L577A/L578A, form open): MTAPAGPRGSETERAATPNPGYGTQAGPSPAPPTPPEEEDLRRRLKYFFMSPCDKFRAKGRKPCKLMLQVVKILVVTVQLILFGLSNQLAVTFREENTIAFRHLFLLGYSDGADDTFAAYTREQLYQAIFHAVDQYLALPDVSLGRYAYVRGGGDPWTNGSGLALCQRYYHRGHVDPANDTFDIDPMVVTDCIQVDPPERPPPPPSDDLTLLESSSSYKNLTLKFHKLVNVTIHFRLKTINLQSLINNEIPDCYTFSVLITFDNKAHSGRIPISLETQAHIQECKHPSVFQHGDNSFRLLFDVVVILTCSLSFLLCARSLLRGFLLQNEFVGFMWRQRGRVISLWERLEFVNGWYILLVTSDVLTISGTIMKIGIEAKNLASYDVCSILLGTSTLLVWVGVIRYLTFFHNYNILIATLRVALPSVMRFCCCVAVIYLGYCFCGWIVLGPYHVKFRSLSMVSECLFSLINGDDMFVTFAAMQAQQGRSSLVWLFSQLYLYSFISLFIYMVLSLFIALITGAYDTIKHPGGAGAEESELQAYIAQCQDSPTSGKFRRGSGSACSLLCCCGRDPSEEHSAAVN

EC50 (TRPML3; Table 3, compounds 201-283) [nM] | EC50 (TRPML2; Table 3, compounds 201-283) [nM] | EC50 (human TRPML1; Table 3, compounds 201-283) [nM] | EC50 (TRPML3; Table 3, compounds 101-177) [nM] | EC50 (TRPML2; Table 3, compounds 101-177) [nM] | EC50 (human TRPML1; Table 3, compounds 101-177) [nM] | SMILES
< 100 | 100 to 500 | < 100 |  |  |  | COC(C)(C)C(=O)N1CCN(c2ncnc3c2c(-c2ccccc2F)cn3-c2cc(C#N)ccn2)C[C@H]1C [Compound 266, (R)-2-(5-(2-fluorophenyl)-4-(4-(2-methoxy-2-methylpropanoyl)-3-methylpiperazin-1-yl)-7H-pyrrolo[2,3-d]pyrimidin-7-yl)isonicotinonitrile]
100 to 500 | 500 to 2000 | 100 to 500 |  |  |  | COC(C)(C)C(=O)N1C[C@H](C)N(c2ncnc3c2c(C2CC2)cn3-c2cccc(F)c2)C[C@H]1C [Compound 246, 1-((2R,5S)-4-(5-cyclopropyl-7-(3-fluorophenyl)-7H-pyrrolo[2,3-d]pyrimidin-4-yl)-2,5-dimethylpiperazin-1-yl)-2-methoxy-2-methylpropan-1-one]
100 to 500 | 500 to 2000 | 100 to 500 |  |  |  | C[C@@H]1CN(c2ncnc3c2c(C2CCC2)cn3-c2cccc(F)c2)[C@@H](C)CN1C(=O)CC(C)(C)C(F)(F)F [Compound 251, 1-((2R,5S)-4-(5-cyclobutyl-7-(3-fluorophenyl)-7H-pyrrolo[2,3-d]pyrimidin-4-yl)-2,5-dimethylpiperazin-1-yl)-4,4,4-trifluoro-3,3-dimethylbutan-1-one]
< 100 | < 100 | < 100 |  |  |  | C[C@@H]1CN(c2ncnc3c2c(N2CCC2)cn3-c2cc(C#N)ccn2)CCN1C(=O)C(C)(C)C [Compound 271, (R)-2-(5-(azetidin-1-yl)-4-(3-methyl-4-pivaloylpiperazin-1-yl)-7H-pyrrolo[2,3-d]pyrimidin-7-yl)isonicotinonitrile]
< 100 | < 100 | < 100 |  |  |  | COC(C)(C)C(=O)N1C[C@H](C)N(c2ncnc3c2c(-c2ccccc2)cn3-c2cc(C#N)ccn2)C[C@H]1C [Compound 282, 2-(4-((2S,5R)-4-(2-methoxy-2-methylpropanoyl)-2,5-dimethylpiperazin-1-yl)-5-phenyl-7H-pyrrolo[2,3-d]pyrimidin-7-yl)isonicotinonitrile]
 |  |  | < 100 | 100 to 500 | < 100 | C[C@@H]1CN(c2cn(-c3cc(C#N)ccn3)c3ncnc(N4CCN(C(=O)CC(C)(C)C)C[C@@H]4C)c23)CCO1 [Compound 165, 2-(4-((S)-4-(3,3-dimethylbutanoyl)-2-methylpiperazin-1-yl)-5-((R)-2-methylmorpholino)-7H-pyrrolo[2,3-d]pyrimidin-7-yl)isonicotinonitrile]
 |  |  | 100 to 500 | 100 to 500 | 100 to 500 | Cc1cc(C#N)cc(-n2cc(-c3ccccc3F)c3c(N4CCN(C(=O)C(C)C)C[C@@H]4C)ncnc32)n1 [Compound 143, (S)-2-(5-(2-fluorophenyl)-4-(4-isobutyryl-2-methylpiperazin-1-yl)-7H-pyrrolo[2,3-d]pyrimidin-7-yl)-6-methylisonicotinonitrile]
 |  |  | < 100 | 100 to 500 | < 100 | C[C@@H]1CN(c2ncnc3c2c(-c2ccccc2F)cn3-c2cc(C#N)ccn2)CCN1C(=O)C1(F)CC1 [Compound 131]
< 100 | < 100 | < 100 |  |  |  | C[C@@H]1CN(c2ncnc3c2c(-c2ccccc2F)cn3-c2cc(C#N)ccn2)[C@@H](C)CN1C(=O)C(C)(C)C [Compound 230, 2-(4-((2S,5R)-2,5-dimethyl-4-pivaloylpiperazin-1-yl)-5-(2-fluorophenyl)-7H-pyrrolo[2,3-d]pyrimidin-7-yl)isonicotinonitrile]
 |  |  | 100 to 500 | 500 to 2000 | < 100 | C[C@H]1CN(C(=O)C(C)(C)C)CCN1c1ncnc2c1c(-c1ccccn1)cn2-c1cc(C#N)ccn1 [Compound 117, (S)-2-(4-(2-methyl-4-pivaloylpiperazin-1-yl)-5-(pyridin-2-yl)-7H-pyrrolo[2,3-d]pyrimidin-7-yl)isonicotinonitrile]
< 100 | 100 to 500 | < 100 |  |  |  | C[C@@H]1CN(c2ncnc3c2c(N2CCC2)cn3-c2cc(C#N)ccn2)[C@@H](C)CN1C(=O)C(C)(C)C [Compound 276, 2-(5-(azetidin-1-yl)-4-((2S,5R)-2,5-dimethyl-4-pivaloylpiperazin-1-yl)-7H-pyrrolo[2,3-d]pyrimidin-7-yl)isonicotinonitrile]
 |  |  | < 100 | < 100 | < 100 | C[C@H]1CN(C(=O)C2(F)CC2)CCN1c1ncnc2c1c(-c1ccccc1F)cn2-c1cc(C#N)ccn1 [Compound 115, (S)-2-(4-(4-(1-fluorocyclopropane-1-carbonyl)-2-methylpiperazin-1-yl)-5-(2-fluorophenyl)-7H-pyrrolo[2,3-d]pyrimidin-7-yl)isonicotinonitrile]
< 100 | 500 to 2000 | < 100 |  |  |  | COC(C)(C)C(=O)N1C[C@H](C)N(c2ncnc3c2c(C2CC2)cn3-c2cc(C#N)ccn2)C[C@H]1C [Compound 264, 2-(5-cyclopropyl-4-((2S,5R)-4-(2-methoxy-2-methylpropanoyl)-2,5-dimethylpiperazin-1-yl)-7H-pyrrolo[2,3-d]pyrimidin-7-yl)isonicotinonitrile]
100 to 500 | 100 to 500 | < 100 |  |  |  | COC(C)(C)C(=O)N1CCN(c2ncnc3c2c(-c2ccccc2F)cn3-c2cc(C#N)ccn2)[C@@H](C)C1 [Compound 242, (S)-2-(5-(2-fluorophenyl)-4-(4-(2-methoxy-2-methylpropanoyl)-2-methylpiperazin-1-yl)-7H-pyrrolo[2,3-d]pyrimidin-7-yl)isonicotinonitrile]
 |  |  | < 100 | 500 to 2000 | < 100 | C[C@@H]1CN(c2ncnc3c2c(C2CC2)cn3-c2cc(C#N)ccn2)[C@@H](C)CN1C(=O)CC(C)(C)C [Compound 153, 2-(5-cyclopropyl-4-((2S,5R)-4-(3,3-dimethylbutanoyl)-2,5-dimethylpiperazin-1-yl)-7H-pyrrolo[2,3-d]pyrimidin-7-yl)isonicotinonitrile]
 |  |  | < 100 | 500 to 2000 | < 100 | CC(C)C(=O)N1CCN(c2ncnc3c2c(-c2ccccc2)cn3-c2cc(C#N)ccn2)[C@@H](C)C1 [Compound 118, (S)-2-(4-(4-isobutyryl-2-methylpiperazin-1-yl)-5-phenyl-7H-pyrrolo[2,3-d]pyrimidin-7-yl)isonicotinonitrile]
< 100 | 100 to 500 | < 100 |  |  |  | C[C@@H]1CN(c2ncnc3c2c(N2CCC2)cn3-c2cccc(Cl)c2)[C@@H](C)CN1C(=O)C(C)(C)C [Compound 220, 1-((2R,5S)-4-(5-(azetidin-1-yl)-7-(3-chlorophenyl)-7H-pyrrolo[2,3-d]pyrimidin-4-yl)-2,5-dimethylpiperazin-1-yl)-2,2-dimethylpropan-1-one]
< 100 | < 100 | < 100 |  |  |  | C[C@H]1CN(C(=O)[C@H](F)C(C)(C)C)CCN1c1ncnc2c1c(C1CC1)cn2-c1cc(C#N)ccn1 (single isomer, unassigned) [Compound 202]
 |  |  | < 100 | < 100 | < 100 | C[C@@H]1CN(c2ncnc3c2c(-c2ccccc2F)cn3-c2cc(C#N)ccn2)CCN1C(=O)C(C)(C)C [Compound 109, (R)-2-(5-(2-fluorophenyl)-4-(3-methyl-4-pivaloylpiperazin-1-yl)-7H-pyrrolo[2,3-d]pyrimidin-7-yl)isonicotinonitrile]
 |  |  | < 100 | 100 to 500 | < 100 | C[C@@H]1CN(c2ncnc3c2c(C2CC2)cn3-c2cc(C#N)ccn2)CCN1C(=O)C(C)(C)F [Compound 130, (R)-2-(5-cyclopropyl-4-(4-(2-fluoro-2-methylpropanoyl)-3-methylpiperazin-1-yl)-7H-pyrrolo[2,3-d]pyrimidin-7-yl)isonicotinonitrile]
